Data taken from patent US20040152191A1 (priority 2001, published 2004).

How the values were obtained:
[1] = system: dendritic cells derived from human monocytes; experiment: Maturation of dendritic cells from human monocytes, surface markers by flow cytometry (Example 1); type: cell-based; conditions: D8, TNF-alpha 200 IU/ml
Experimental: Peripheral blood is taken from the subject concerned. This blood is then centrifuged for 20 minutes at 200 g so as to diminish the contamination of the peripheral blood cells by platelets. The upper part containing most of the platelets and the plasma is carefully removed before the mononucleated cells are purified by centrifuging them on a Ficoll separation gradient, the density of which is 1.077. The layer of mononucleated cells is recovered, then washed twice with PBS buffer and deposited on a gradient containing 4 discontinuous densities of Percoll in order to isolate the monocytes. This gradient is constituted by concentrations of Percoll in isotonic solution of 75% (6.5 ml), 50.5% (15 ml), 40% (3.5 ml) and 30% (3 ml) in a Dulbecco medium without magnesium nor calcium and containing 5% human serum. 75 to 100 millions of cells are thus deposited in each tube and centrifuged at 1000 g during 25 minutes at 4° C. The low density cells, principally the monocytes, are harvested at the interface between the concentrations 40% and 50.5%, and washed twice with PBS. They are then resuspended in a culture medium, then deposited on culture plates containing 6 wells at a density of 5×10^6 cells per well in a final volume of 3 ml and left to adhere for 1 hour at 37° C. This adhesion step can be replaced by an additional purification of the monocytes by means of a negative purification system using a mixture of monoclonal antibodies combining an anti-CD3, CD7, CD19, CD45A, CD56 and anti-IgG with the aid of a Macs type microbead system (Miltenyi Biotec).
The cells are then placed in culture in culture wells at 37° C. under 5% CO2. The medium which consists of RPMI contains 200 IU/ml of recombinant human GM-CSF and 500 IU/ml of recombinant human IL-4 in a final volume of 6 ml. On day 3 and day 5, the cultures are renewed by removing 3 ml and adding 3 ml of fresh medium with the cytokines. […] The cells are harvested on day 8, washed and cultivated in the absence of stimulation for a further 3 days.
At the end of the culture period, the quality of the maturation is assessed by measuring the expression of the molecules CD80, 83, 86, 14, 1a, HLA-DR at the surface of the cells.

[2] = system: dendritic cells derived from human monocytes; experiment: Effect of LCOS 1013 on maturation of dendritic cells derived from human monocytes, phenotype by flow cytometry (Examples 11, 12); type: cell-based
Source text: The purified monocytes (more than 90%) were placed in culture in RPMI medium containing 10% AB human serum in the presence of growth factors GM-CSF (200 U/ml) and IL-4 (500 U/ml) for 6 days in order to induce the differentiation of the monocytes into immature dendritic cells.
The phenotype of the cells thus generated (after 8 days of culture) was examined by flow cytometry. The expression of the marker specific for maturation of the dendritic cells (CD83), of the co-stimulatory molecules CD80, CD86, CD40, of the adhesion molecule CD54, of the class II HLA-DR molecule of the major histocompatibility complex was analyzed. The expression of the CD1a molecule, specific marker of the Langerhans cells, immature dendritic cells, was also tested.

[3] = Donor 1, TNF-α 200 U/ml or LCOS 1013 25 μg/ml for 48 hours
[4] = Donor 2, TNF-α 200 U/ml or LCOS 1013 25 μg/ml for 48 hours
[5] = Donor 3, TNF-α 200 U/ml or LCOS 1013 25 μg/ml for 48 hours
[6] = Example 12, single donor, TNF-α 200 U/ml

## TNF-α
[1]; experiment a
  CD14, % of labelled cells: 0.87%
  CD40, MFI: 1603
  CD54, % of labelled cells: 97.4%
  CD54, MFI: 295
  CD80, % of labelled cells: 62.1%
  CD80, MFI: 129
  CD83, % of labelled cells: 84.5%
  CD83, MFI: 173
  CD86, % of labelled cells: 98.8%
  CD86, MFI: 326
  HLA-DQ, % of labelled cells: 84.3%
  HLA-DQ, MFI: 157
  HLA-DR, % of labelled cells: 98.9%
  HLA-DR, MFI: 1225
[1]; experiment b
  CD1a, % of labelled cells: 0.21%
  CD14, % of labelled cells: 0.61%
  CD40, % of labelled cells: 99.6%
  CD40, MFI: 1728
  CD54, % of labelled cells: 95.6%
  CD54, MFI: 255
  CD80, % of labelled cells: 70.5%
  CD80, MFI: 93.5
  CD83, % of labelled cells: 89.5%
  CD83, MFI: 196
  CD86, % of labelled cells: 99.5%
  CD86, MFI: 273
  HLA-DQ, % of labelled cells: 84.2%
  HLA-DQ, MFI: 183
  HLA-DR, % of labelled cells: 99.1%
  HLA-DR, MFI: 946
[1]; experiment c
  CD14, % of labelled cells: 3.27%
  CD40, % of labelled cells: 99.3%
  CD40, MFI: 1480
  CD54, % of labelled cells: 98.2%
  CD54, MFI: 249
  CD83, % of labelled cells: 89%
  CD83, MFI: 166
  CD86, % of labelled cells: 99.5%
  CD86, MFI: 284
  HLA-DR, % of labelled cells: 99.4%
  HLA-DR, MFI: 694
[2]; [3]
  CD1a, MFI: 28
  CD1a, percentage of expression: 13.2%
  CD40, MFI: (1084)
  CD40, percentage of expression: 99.4%
  CD54, MFI: (195)
  CD54, percentage of expression: 98.4%
  CD80, MFI: (85)
  CD80, percentage of expression: 69.7%
  CD83, MFI: (132)
  CD83, percentage of expression: 91%
  CD86, MFI: (209)
  CD86, percentage of expression: 99.5%
  HLA-DR, MFI: (803)
  HLA-DR, percentage of expression: 99.5%
[2]; [4]
  CD1a, MFI: 215
  CD1a, percentage of expression: 20.6%
  CD40, MFI: (1104)
  CD40, percentage of expression: 99.2%
  CD54, MFI: (355)
  CD54, percentage of expression: 97.8%
  CD80, MFI: (89)
  CD80, percentage of expression: 55.1%
  CD83, MFI: (221)
  CD83, percentage of expression: 88%
  CD86, MFI: (299)
  CD86, percentage of expression: 99.1%
  HLA-DR, MFI: (1108)
  HLA-DR, percentage of expression: 98.6%
[2]; [5]
  CD1a, expression: Neg.
  CD40, MFI: (918)
  CD40, percentage of expression: 98.7%
  CD54, MFI: (154)
  CD54, percentage of expression: 95.9%
  CD80, MFI: (65)
  CD80, percentage of expression: 48.7%
  CD83, MFI: (108)
  CD83, percentage of expression: 91.8%
  CD86, MFI: (209)
  CD86, percentage of expression: 98.5%
  HLA-DR, MFI: (768)
  HLA-DR, percentage of expression: 98.9%
[2]; [6]
  CD40, percentage of expression: 83.44%
  CD40, second line of cell (MFI): 289.54
  CD54, percentage of expression: 87.12%
  CD54, second line of cell (MFI): 137.49
  CD80, percentage of expression: 0.49%
  CD80, second line of cell (MFI): 95.04
  CD83, percentage of expression: 70.02%
  CD83, second line of cell (MFI): 65.55
  CD86, percentage of expression: 94.44%
  CD86, second line of cell (MFI): 180.81
  HLA-DR, percentage of expression: 92.12%
  HLA-DR, second line of cell (MFI): 877.54
